Results as given in article PMC7926352, “Synthesis, Characterization and In Vitro Evaluation of Novel 5-Ene-thiazolo[3,2-b][1,2,4]triazole-6(5H)-ones as Possible Anticancer Agents” (Molecules, 2021).
Read-outs that look alike come from different tables or passages of the source.

Key:
A549/ATCC = format: cell-based; details: NSCLC
NCI-H226 = format: cell-based; details: NCI-H226, NSCLC
HL-60 (TB) = details: HL-60 (TB), Leukemia
K-562 = details: K-562, Leukemia
EKVX = details: NSCLC
HOP-92 = details: HOP-92, NSCLC
NCI-H460 = details: NCI-H460, NSCLC
HCC-2998 = details: HCC-2998, Colon cancer
HCT-116 = details: HCT-116, Colon cancer
KM12 = details: KM12, Colon cancer
SF-268 = details: SF-268, CNS Cancer
SF-539 = details: SF-539, CNS Cancer
SNB-75 = details: SNB-75, CNS Cancer
LOX IMVI = details: Melanoma
MALME-3M = details: MALME-3M, Melanoma
M14 = details: M14, Melanoma
SK-MEL-2 = details: SK-MEL-2, Melanoma
SK-MEL-5 = details: SK-MEL-5, Melanoma
UACC-257 = details: UACC-257, Melanoma
UACC-62 = details: UACC-62, Melanoma
CAKI-1 = details: CAKI-1, Renal Cancer
SN12C = details: Renal Cancer
PC-3 = details: PC-3, Prostate Cancer
DU-145 = details: DU-145, Prostate Cancer
MCF7 = details: MCF7, Breast Cancer
HS 578T = details: HS 578T, Breast Cancer
Colon cancer cell lines = details: Colon cancer subpanel
CNS Cancer cell lines = details: CNS Cancer subpanel
[1] = tested on: Ovarian Cancer cell lines; details: Ovarian Cancer subpanel
Breast Cancer cell lines = details: Breast Cancer subpanel
[2] = read-out: GI50, values range inside panel

Ethyl(Z)-4-(3-(4-chloro-2-((6-oxothiazolo[3,2-b][1,2,4]triazol-5(6H)-ylidene)methyl)phenyl)propanamido)benzoate [Compound 2i]
GI50 (A549/ATCC): 19.5 µM | TGI (A549/ATCC): 39.81 µM | CC50 (A549/ATCC; read-out: LC50 (the source's name)): 79.4 µM | GI50 (NCI-H226): 17 µM | LC50 (50% lethal concentration) (NCI-H226): 67.6 µM | TGI (NCI-H226): 33.11 µM | GI50 (HL-60 (TB)): 12.3 µM | TGI (HL-60 (TB)): 41.68 µM | CC50 (HL-60 (TB); read-out: LC50): > 100 µM | GI50 (K-562): 18.2 µM | TGI (K-562): > 100 µM | GI50 (EKVX): 12.9 µM | TGI (EKVX): 25.70 µM | GI50 (HOP-92): 10.2 µM | TGI (HOP-92): 29.51 µM | GI50 (NCI-H460): 13.5 µM | TGI (NCI-H460): 27.54 µM | GI50 (HCC-2998): 16.6 µM | TGI (HCC-2998): 33.11 µM | GI50 (HCT-116): 9.55 µM | TGI (HCT-116): 23.44 µM | GI50 (KM12): 10.2 µM | TGI (KM12): 23.98 µM | GI50 (SF-268): 6.02 µM | TGI (SF-268): 28.84 µM | GI50 (SF-539): 12.6 µM | TGI (SF-539): 25.11 µM | GI50 (SNB-75): 13.2 µM | TGI (SNB-75): 44.66 µM | GI50 (LOX IMVI): 5.62 µM | TGI (LOX IMVI): 18.19 µM | GI50 (MALME-3M): 14.8 µM | TGI (MALME-3M): 28.18 µM | GI50 (M14): 12.6 µM | TGI (M14): 27.54 µM | GI50 (SK-MEL-2): 14.5 µM | TGI (SK-MEL-2): 33.11 µM | GI50 (SK-MEL-5): 10.5 µM | TGI (SK-MEL-5): 21.87 µM | GI50 (UACC-257): 10.5 µM | TGI (UACC-257): 25.70 µM | GI50 (UACC-62): 13.8 µM | TGI (UACC-62): 26.30 µM | GI50 (CAKI-1): 10.5 µM | TGI (CAKI-1): 23.98 µM | GI50 (SN12C): 12.6 µM | TGI (SN12C): 25.11 µM | GI50 (PC-3): 11.2 µM | TGI (PC-3): 38.01 µM | GI50 (DU-145): 3.98 µM | TGI (DU-145): 16.21 µM | GI50 (MCF7): 5.12 µM | TGI (MCF7): 19.05 µM | GI50 (HS 578T): 3.54 µM | TGI (HS 578T): 19.49 µM | TGI, panel MG_MID (Colon cancer cell lines): 26.51 µM | TGI, values range inside panel (Colon cancer cell lines): 21.37 to 33.11 µM | GI50 (Colon cancer cell lines; read-out: GI50, panel MG_MID): 12.4 µM | GI50 (Colon cancer cell lines; [2]): 9.55 to 16.6 µM | TGI, panel MG_MID (CNS Cancer cell lines): 27.42 µM | TGI, values range inside panel (CNS Cancer cell lines): 19.05 to 44.66 µM | GI50 (CNS Cancer cell lines; read-out: GI50, panel MG_MID): 9.85 µM | GI50 (CNS Cancer cell lines; [2]): 6.02 to 13.2 µM | TGI, panel MG_MID [1]: 31.15 µM | TGI, values range inside panel [1]: 20.89 to 38.90 µM | GI50 ([1]; read-out: GI50, panel MG_MID): 13.7 µM | TGI, panel MG_MID (Breast Cancer cell lines): 30.29 µM | GI50 (Breast Cancer cell lines; read-out: GI50, panel MG_MID): 9.72 µM | GI50 (Breast Cancer cell lines; [2]): 3.54 to 21.9 µM
